Experimental data as given in patent US12377104B1, “Methods for treating a fatty liver disease” (Madrigal Pharmaceuticals, Inc., priority 2024, dated 2025).

Tested on: NASH patients
Assay: MAESTRO-NASH: efficacy by baseline body weight and BMI
Assay type: in vivo, human
Settings: for ≥30% Reduction in MRI-PDFF at Week 52, Assessment (%) / ≥120% Increase in SHBG at Week 52, Assessment (%): post hoc
Experimental: In the MAESTRO-NASH study, randomization to 80 mg and 100 mg doses was equal across all body weights. Analyses were conducted to provide additional evidence of a relationship between resmetirom dose, baseline body weight and body mass index (BMI), and safety/efficacy readouts. […] The only variable that determined exposure to resmetirom in the NASH population was body weight. […] Study median body weight was 100 kg. […] et al. (2024). CAP was stable over time, both doses showing a similar durable response (FIG. 30B).

CC(C)c1cc(Oc2c(Cl)cc(-n3nc(C#N)c(=O)[nH]c3=O)cc2Cl)n[nH]c1=O [Resmetirom, 2-(3,5-dichloro-4-((5-isopropyl-6-oxo-1,6-dihydropyridazin-3-yl)oxy)phenyl)-3,5-dioxo-2,3,4,5-tetrahydro-1,2,4-triazine-6-carbonitrile]
Discontinued Study Prior to Week 52: number (80 mg, 80-<90 kg): 6
Discontinued Study Prior to Week 52: percentage (in parentheses) (80 mg, 80-<90 kg): (10.3)
Week 52 MITT Consensus Fibrosis Improvement Responder: number (80 mg, 80-<90 kg): 20
Week 52 MITT Consensus Fibrosis Improvement Responder: percentage (in parentheses) (80 mg, 80-<90 kg): (34.5)
Week 52 MITT Consensus NASH Resolution Responder: number (80 mg, 80-<90 kg): 17
Week 52 MITT Consensus NASH Resolution Responder: percentage (in parentheses) (80 mg, 80-<90 kg): (29.3)
Week 52 Paired Biopsies Consensus Fibrosis Improvement Responder: number (80 mg, 80-<90 kg): 20
Week 52 Paired Biopsies Consensus Fibrosis Improvement Responder: percentage (in parentheses) (80 mg, 80-<90 kg): (40.8)
Week 52 Paired Biopsies Consensus NASH Resolution Responder: number (80 mg, 80-<90 kg): 17
Week 52 Paired Biopsies Consensus NASH Resolution Responder: percentage (in parentheses) (80 mg, 80-<90 kg): (34.7)
≥30% reduction in MRI-PDFF at Week 52: number of patients (80 mg, 80-<90 kg): 28
≥30% reduction in MRI-PDFF at Week 52: percentage of patients (in parentheses) (80 mg, 80-<90 kg): (63.6)
≥120% increase in SHBG at Week 52: number of patients (80 mg, 80-<90 kg): 30
≥120% increase in SHBG at Week 52: percentage of patients (in parentheses) (80 mg, 80-<90 kg): (56.6)
Discontinued Study Prior to Week 52: number (80 mg, 90-<100 kg): 6
Discontinued Study Prior to Week 52: percentage (in parentheses) (80 mg, 90-<100 kg): (10.2)
Week 52 MITT Consensus Fibrosis Improvement Responder: number (80 mg, 90-<100 kg): 15
Week 52 MITT Consensus Fibrosis Improvement Responder: percentage (in parentheses) (80 mg, 90-<100 kg): (25.4)
Week 52 MITT Consensus NASH Resolution Responder: number (80 mg, 90-<100 kg): 15
Week 52 MITT Consensus NASH Resolution Responder: percentage (in parentheses) (80 mg, 90-<100 kg): (25.4)
Week 52 Paired Biopsies Consensus Fibrosis Improvement Responder: number (80 mg, 90-<100 kg): 15
Week 52 Paired Biopsies Consensus Fibrosis Improvement Responder: percentage (in parentheses) (80 mg, 90-<100 kg): (30.6)
Week 52 Paired Biopsies Consensus NASH Resolution Responder: number (80 mg, 90-<100 kg): 15
Week 52 Paired Biopsies Consensus NASH Resolution Responder: percentage (in parentheses) (80 mg, 90-<100 kg): (30.6)
≥30% reduction in MRI-PDFF at Week 52: number of patients (80 mg, 90-<100 kg): 28
≥30% reduction in MRI-PDFF at Week 52: percentage of patients (in parentheses) (80 mg, 90-<100 kg): (62.2)
≥120% increase in SHBG at Week 52: number of patients (80 mg, 90-<100 kg): 28
≥120% increase in SHBG at Week 52: percentage of patients (in parentheses) (80 mg, 90-<100 kg): (52.8)
Discontinued Study Prior to Week 52: number (80 mg, 100-<110 kg): 3
Discontinued Study Prior to Week 52: percentage (in parentheses) (80 mg, 100-<110 kg): (6.5)
Week 52 MITT Consensus Fibrosis Improvement Responder: number (80 mg, 100-<110 kg): 8
Week 52 MITT Consensus Fibrosis Improvement Responder: percentage (in parentheses) (80 mg, 100-<110 kg): (17.4)
Week 52 MITT Consensus NASH Resolution Responder: number (80 mg, 100-<110 kg): 13
Week 52 MITT Consensus NASH Resolution Responder: percentage (in parentheses) (80 mg, 100-<110 kg): (28.3)
Week 52 Paired Biopsies Consensus Fibrosis Improvement Responder: number (80 mg, 100-<110 kg): 8
Week 52 Paired Biopsies Consensus Fibrosis Improvement Responder: percentage (in parentheses) (80 mg, 100-<110 kg): (22.2)
Week 52 Paired Biopsies Consensus NASH Resolution Responder: number (80 mg, 100-<110 kg): 13
Week 52 Paired Biopsies Consensus NASH Resolution Responder: percentage (in parentheses) (80 mg, 100-<110 kg): (36.1)
≥30% reduction in MRI-PDFF at Week 52: number of patients (80 mg, 100-<110 kg): 23
≥30% reduction in MRI-PDFF at Week 52: percentage of patients (in parentheses) (80 mg, 100-<110 kg): (67.6)
≥120% increase in SHBG at Week 52: number of patients (80 mg, 100-<110 kg): 14
≥120% increase in SHBG at Week 52: percentage of patients (in parentheses) (80 mg, 100-<110 kg): (34.1)
Discontinued Study Prior to Week 52: number (80 mg, <80 kg): 6
Discontinued Study Prior to Week 52: percentage (in parentheses) (80 mg, <80 kg): (10.0)
Week 52 MITT Consensus Fibrosis Improvement Responder: number (80 mg, <80 kg): 17
Week 52 MITT Consensus Fibrosis Improvement Responder: percentage (in parentheses) (80 mg, <80 kg): (28.3)
Week 52 MITT Consensus NASH Resolution Responder: number (80 mg, <80 kg): 15
Week 52 MITT Consensus NASH Resolution Responder: percentage (in parentheses) (80 mg, <80 kg): (25.0)
Week 52 Paired Biopsies Consensus Fibrosis Improvement Responder: number (80 mg, <80 kg): 17
Week 52 Paired Biopsies Consensus Fibrosis Improvement Responder: percentage (in parentheses) (80 mg, <80 kg): (34.7)
Week 52 Paired Biopsies Consensus NASH Resolution Responder: number (80 mg, <80 kg): 15
Week 52 Paired Biopsies Consensus NASH Resolution Responder: percentage (in parentheses) (80 mg, <80 kg): (30.6)
≥30% reduction in MRI-PDFF at Week 52: number of patients (80 mg, <80 kg): 34
≥30% reduction in MRI-PDFF at Week 52: percentage of patients (in parentheses) (80 mg, <80 kg): (73.9)
≥120% increase in SHBG at Week 52: number of patients (80 mg, <80 kg): 39
≥120% increase in SHBG at Week 52: percentage of patients (in parentheses) (80 mg, <80 kg): (72.2)
≥30% Reduction in MRI-PDFF at Week 52, Assessment (%) (80 mg, body weight >100 kg): 56.7%
≥120% Increase in SHBG at Week 52, Assessment (%) (80 mg, body weight >100 kg): 29.6%
≥30% Reduction in MRI-PDFF at Week 52, Assessment (%) (80 mg, body weight ≤100 kg): 66.9%
≥120% Increase in SHBG at Week 52, Assessment (%) (80 mg, body weight ≤100 kg): 60.9%
Discontinued Study Prior to Week 52: number (80 mg, ≥110 kg): 19
Discontinued Study Prior to Week 52: percentage (in parentheses) (80 mg, ≥110 kg): (19.2)
Week 52 MITT Consensus Fibrosis Improvement Responder: number (80 mg, ≥110 kg): 17
Week 52 MITT Consensus Fibrosis Improvement Responder: percentage (in parentheses) (80 mg, ≥110 kg): (17.2)
Week 52 MITT Consensus NASH Resolution Responder: number (80 mg, ≥110 kg): 17
Week 52 MITT Consensus NASH Resolution Responder: percentage (in parentheses) (80 mg, ≥110 kg): (17.2)
Week 52 Paired Biopsies Consensus Fibrosis Improvement Responder: number (80 mg, ≥110 kg): 17
Week 52 Paired Biopsies Consensus Fibrosis Improvement Responder: percentage (in parentheses) (80 mg, ≥110 kg): (22.7)
Week 52 Paired Biopsies Consensus NASH Resolution Responder: number (80 mg, ≥110 kg): 17
Week 52 Paired Biopsies Consensus NASH Resolution Responder: percentage (in parentheses) (80 mg, ≥110 kg): (22.7)
≥30% reduction in MRI-PDFF at Week 52: number of patients (80 mg, ≥110 kg): 33
≥30% reduction in MRI-PDFF at Week 52: percentage of patients (in parentheses) (80 mg, ≥110 kg): (51.6)
≥120% increase in SHBG at Week 52: number of patients (80 mg, ≥110 kg): 21
≥120% increase in SHBG at Week 52: percentage of patients (in parentheses) (80 mg, ≥110 kg): (28.0)
Discontinued Study Prior to Week 52: number (100 mg, 80-<90 kg): 4
Discontinued Study Prior to Week 52: percentage (in parentheses) (100 mg, 80-<90 kg): (8.2)
Week 52 MITT Consensus Fibrosis Improvement Responder: number (100 mg, 80-<90 kg): 13
Week 52 MITT Consensus Fibrosis Improvement Responder: percentage (in parentheses) (100 mg, 80-<90 kg): (26.5)
Week 52 MITT Consensus NASH Resolution Responder: number (100 mg, 80-<90 kg): 16
Week 52 MITT Consensus NASH Resolution Responder: percentage (in parentheses) (100 mg, 80-<90 kg): (32.7)
Week 52 Paired Biopsies Consensus Fibrosis Improvement Responder: number (100 mg, 80-<90 kg): 13
Week 52 Paired Biopsies Consensus Fibrosis Improvement Responder: percentage (in parentheses) (100 mg, 80-<90 kg): (31.7)
